The text below walks through data of patent US7186695B2 (priority 2001, dated 2007).

The structures appear in SMILES notation. “Also recorded” adds a separate entry of the source. Read-outs that look alike come from different tables or passages of the source.

For test [1], the system named is adjuvant-induced arthritis, rat ankles. The following applies: in vivo.
For test [2], the target named is T1, Thioredoxin (Homo sapiens, UniProt P10599).
T1 construct: purchased American Diagnostica, Greenwich, Conn; host or cells: E. coli
T1 sequence (P10599 1-105): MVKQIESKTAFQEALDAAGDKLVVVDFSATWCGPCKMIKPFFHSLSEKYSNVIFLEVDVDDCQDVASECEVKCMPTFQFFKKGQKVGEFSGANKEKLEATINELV
Description: Inhibition of thioredoxin-mediated reduction of 70 kDa fibronectin fragment. It is filed as biochemical. The following applies: 1 μM thioredoxin, 10 minutes. How it is done:
FIG. 13. Inhibition of thioredoxin by GSAO. Thioredoxin (1 μM) was incubated with GSAO (0, 1 or 10 μM) for 10 minutes at room temperature in 20 mM Hepes, 0.14 M NaCl, pH 7.4 buffer. The 70 kDa fibronectin fragment (10 μg per mL) was added and incubated for 5 minutes at room temperature. The reactions were labelled with MPB (100 μM) for 10 minutes at 37° C. The MPB was quenched with GSH (200 μM) for 10 minutes at 37° C. followed by Iodoacetamide (400 μM) for 10 minutes at room temperature. The MPB-labelled 70 kDa fragment was resolved on 5–15% SDS-PAGE, transferred to PVDF membrane and the MPB detected by blotting with streptavidin peroxidase. The positions of Mr markers are shown at left.
It was observed that thioredoxin reduced one or more protein disulfide bonds in the 70 kDa N-terminal fragment of fibronectin.

A short description of test [3]: Binding of GSAO to dithiols, loss of thiols in DTNB assay. Here is the method:
FIG. 11. Titration of DMP or cysteine with GSAO. DMP (15 μM corresponding to 30 μM thiols) is or cysteine (28 μM) was incubated with GSAO (0–50 μM) for 10 minutes. DTNB (950 μM) was then added and the reactions incubated for a further 10 minutes. The concentration of thiol in the reactions was determined from the absorbance of the TNB dianion at 412 nm.
FIG. 12. Interaction of GSAO with synthetic. Deptide and protein dithiols. DMP (A) (15 μM), 6,8-thioctic acid (B) ([…]), dithiothreitol (C) (8.5 μM), TrpCysGlyProCysLys (D) (4.6 μM), TrpCysGlyHisCysLys (E) (5.5 μM) or thioredoxin (F) (4.1 μM corresponding to 20.6 μM thiols) was incubated with GSAO (0–56 μM) for 10 minutes. […] The concentration of thiol in the reactions was determined from the absorbance of the TNB dianion at 412 nm. […]
(§1) A stock solution of DMP (5 μL, 50 μmol) was dissolved in DMSO (995 μL), giving a concentration of 50 mM DMP. […] The activity of the arsenical could then be determined by the titration of varying amounts of arsenical against the DMP working solution (10 μL) in a 96-well microbitre plate, with the total volume made up to 195 μL by addition of buffer. […] The absorbance at 412 nm due to the formation of the TNB dianion was measured using a Molecular Devices Thermomax Plus (Palo Alto, Calif.) microplate reader. […]
(§2) Binding of GSAO to dithiols was measured from loss of thiols using the DTNB assay described above. […]

Assay in test [4]: as above
The settings on record: errors are 1 SD, read-out: Dissociation Constant. How it is done: (§3) FIG. 12. Interaction of GSAO with synthetic. Deptide and protein dithiols. DMP (A) (15 μM), 6,8-thioctic acid (B) ([…]), dithiothreitol (C) (8.5 μM), TrpCysGlyProCysLys (D) (4.6 μM), TrpCysGlyHisCysLys (E) (5.5 μM) or thioredoxin (F) (4.1 μM corresponding to 20.6 μM thiols) was incubated with GSAO (0–56 μM) for 10 minutes. DTNB (950 μM) was then added and the reactions incubated for a further 10 minutes. The concentration of thiol in the reactions was determined from the absorbance of the TNB dianion at 412 nm. The solid lines represent the best non-linear least squares fit of the data to Equation 1 (A to E) or Equation 2 (F) and have been drawn using the parameter estimates in Table 1. […]
as §1, §2

The target of test [5] is T1, Thioredoxin. Description: Binding of GSAO to thioredoxin active site dithiol, DTNB assay. How it is done:
as §3, with “1. The dotted line in part A represents a simulated titration assuming an infinite affinity of GSAO for the dithiol.” for “1.”
as §1

The term inhibition denotes the relative decrease from the control value, in per cent. The low end stands for little suppression, the high end for strong suppression. As for `NC(CCC(=O)NC(CSCC(=O)Nc1ccc([As]=O)cc1)C(=O)NCC(=O)O)C(=O)O` (centres unmarked) [GSAO, 4-(N-(S-glutathionylacetyl)amino)-phenylarsenoxide], the pannus formation result in test [1] is reported as “significantly reduced; also recorded: little to no pannus formation”. In test [1], the “periarticular inflammation (density of inflammatory cells)” value was “significantly reduced; also recorded: almost no inflammatory cells”. For the same compound, the “signs of new bone formation (periosteal reaction)” value in test [1] is “none”. This compound also came in with an inhibition at 1 µM against Thioredoxin [2] (1 μM GSAO) of roughly 50%. The “inhibition of thioredoxin activity” value at Thioredoxin [2] (10 μM GSAO) is on record as “completely inhibited”. Also, the “interaction of GSAO with DMP in DTNB titration” value in test [3] (DMP 15 μM, GSAO 0–50 μM, 10 minutes) is “bound to DMP and prevented interaction of the dithiol with DTNB”. Further, the Kd amounted to 130 nM in test [3] (ring size 5, errors are 1 SD, read-out: Dissociation Constant); 200 ± 50 nM in test [4] (ring size 6); 420 nM in test [4] (ring size 7); 370 ± 180 nM on Thioredoxin [5]. Besides, the “higher affinity for thioredoxin than for the thioredoxin active site hexapeptide” value at Thioredoxin [5] (thioredoxin vs TrpCysGlyProCysLys) is given as roughly 4 fold.
